Reference: US8008492B2, “Compounds that act as a vehicle for delivery through the blood-brain barrier and charge delivery vehicle constructions” (priority 2006, dated 2011)

Assays:
[1] = Immobilized artificial membrane chromatography (IAMC); type: physicochemical; details: isocratic, phosphate buffer pH 7.4 and 20% MeCN
Source text: To evaluate the BBB-shuttles and BBB-shuttle-cargo constructs, a chromatographic technique, IAMC (immobilized artificial membrane chromatography) developed by Pidgeon was used (cf. A. Albert, Chemical aspects of selective toxicity. Nature 1958, vol. 182, pp. 421-423). This technique uses phospholipid molecules covalently immobilized to silica particles at high density as the stationary phase. It has been used to purify membrane proteins, to immobilize enzymes and to predict transport across biological barriers. […] IAMC interactions include ionic, lipophilic and hydrogen bonding interactions that can be combined under a parameter known as phospholipophilicity. […] The compounds were detected by UV absorption at 220 nm. […] The retention times (tr) were transformed into capacity factors (kIAM) according to the following equation: kIAM=(tr−t0)/t0, where tr is the retention time of the studied compound and t0 is the retention time of a compound that would not be retained by the column (e.g. citric acid). As a control, propranolol was studied. BBB-shuttles and the BBB-shuttle-cargo constructs were also evaluated by IAMC (Immobilized Artificial Membrane Chromatography), a chromatographic technique that measures the phospholipophilicity of our compounds, their tendency to interact with phosphatidylcholine covalently immobilized. See results in Table 6 and 7.

[2] = Parallel artificial membrane permeability assay (PAMPA); type: in vitro ADME, porcine; details: 200 μM initial, pH 7.4, 4 hours, room temperature; for Effective permeability Pe: triplicate
Source text: Parallel artificial membrane permeability assay (PAM PA). The evaluation method chosen is the Parallel Artificial Membrane Permeability Assay (PAMPA), which allows to predict or evaluate only this transport mechanism. In general terms, this method is simple, automatizable with high throughput, has a low cost and require only a small amount of test compound. The PAMPA method originally introduced by Kansy at Roche uses an artificial membrane in the form of filter supported phospholipids bilayers ([…] al., “Physicochemical high throughput screening: Parallel artificial membrane permeability assay in the description of the absorption processes” J. Med. Chem. 1998, vol. 41, pp. 1007-1010). The phospholipid membrane mimics the cell membrane, but has no means for active or paracellular transport of drug molecules. It is a very convenient tool to evaluate the transport of compounds by passive diffusion. This technique allows the evaluation of pure compounds, crudes or even mixtures of compounds. PAMPA assay is used to determine the ability of the BBB shuttle-cargo constructs to cross the BBB by passive diffusion. […] The compound of interest was dissolved to the desired concentration (200 μM). The PAMPA sandwich was separated and the donor well was filled with 200 μL of the compound solution to be studied. The acceptor plate was placed into the donor plate making sure that the underside of membrane was in contact with buffer. 4 μL of mixture of phospholipids (20 mg/mL) in dodecane were added into each well and 200 μL of buffer solution were added to the each acceptor well. The plate was covered and incubated at room temperature in a saturated humidity atmosphere for 4 hours under orbital agitation at 100 rpm. […] The transport was also confirmed by MALDI-TOF spectrometry and HPLC-MS of aliquotes of the acceptor wells. The mixture of phospholipids used is a porcine polar brain lipid extract. […] The effective permeability was calculated using the following equation: [formula] where: • t time (hours) • CA(t) Compound concentration at the acceptor well at time t • CD(t0) Compound concentration at the donor well at 0 h As a control, the transport of propranolol was evaluated in parallel and a mass balance was calculated for all the studied compounds in order to detect if retention in the phospholipids occur. The different compounds were evaluated by PAMPA assay.

Structure (SMILES)	Log Pe ([2]; dopamine constructs)	Effective permeability Pe ([2]; dopamine constructs)	Capacity factor kIAM ([1]; dopamine constructs)	Capacity factor kIAM ([1]; baicalin constructs)	Log Pe ([2]; baicalin constructs)	Effective permeability Pe ([2]; baicalin constructs)
O=C(O)[C@H]1O[C@@H](Oc2cc3oc(-c4ccccc4)cc(=O)c3c(O)c2O)[C@H](O)[C@@H](O)[C@@H]1O [Baicalin, baicalin, reference compound]				1.24		
CN1C(=O)C(Cc2ccc(NC(=O)C3OC(Oc4cc5oc(-c6ccccc6)cc(=O)c5c(O)c4O)C(O)C(O)C3O)cc2)NC(=O)C1Cc1ccccc1 (centres unmarked) [Compound 5a, DKP Phe(p-NH—CO-baicalin)-N-MePhe]				2.42	−7.7	1.33 10^−8 cm/s
CN1C(=O)C(Cc2ccc(NC(=O)C3OC(Oc4cc5oc(-c6ccccc6)cc(=O)c5c(O)c4O)C(O)C(O)C3O)cc2)NC(=O)C1CC1CCCCC1 (centres unmarked) [Compound 5b, DKP Phe(p-NH—CO-baicalin)-N-MeCha]				6.09	−6.4	3.65 10^−7 cm/s
CN1C(=O)C(Cc2ccc(NC(=O)C3OC(Oc4cc5oc(-c6ccccc6)cc(=O)c5c(O)c4O)C(O)C(O)C3O)cc2)NC(=O)C1Cc1ccc2ccccc2c1 (centres unmarked) [Compound 5c, DKP Phe(p-NH—CO-baicalin)-N-Me2Nal]				10.66	−5.4	3.70 10^−6 cm/s
CN1C(=O)C(Cc2ccc(NC(=O)C3OC(Oc4cc5oc(-c6ccccc6)cc(=O)c5c(O)c4O)C(O)C(O)C3O)cc2)NC(=O)C1Cc1ccc2ccc3cccc4ccc1c2c34 (centres unmarked) [Compound 5d, DKP Phe(p-NH—CO-baicalin)-N-Me1PyrenylAla]				>100	−8.7	0.19 10^−8 cm/s
CN1C(=O)C(Cc2ccc(NC(=O)C3OC(Oc4cc5oc(-c6ccccc6)cc(=O)c5c(O)c4O)C(O)C(O)C3O)cc2)NC(=O)C1CCc1ccccc1 (centres unmarked) [Compound 5e, DKP Phe(p-NH—CO-baicalin)-N-MeHomoPhe]				4.15	−9.3	0.05 10^−8 cm/s
CCCCCCC1C(=O)NC(Cc2ccc(NC(=O)C3OC(Oc4cc5oc(-c6ccccc6)cc(=O)c5c(O)c4O)C(O)C(O)C3O)cc2)C(=O)N1C (centres unmarked) [Compound 5f, DKP Phe(p-NH—CO-baicalin)-N-MeOct]				10.47	−6.3	4.97 10^−7 cm/s
NCCc1ccc(O)c(O)c1 [Dopamine, dopamine, reference compound]			0.30			

Now from value to compound, other results behind:

Log Pe ([2]; dopamine constructs)	Effective permeability Pe ([2]; dopamine constructs)	Capacity factor kIAM ([1]; dopamine constructs)	Structure (SMILES)	Capacity factor kIAM ([1]; baicalin constructs)	Log Pe ([2]; baicalin constructs)	Effective permeability Pe ([2]; baicalin constructs)
−7.4	3.61 10^−8 cm/s	3.54	CN1C(=O)C(Cc2ccc(NCC(=O)NCCc3ccc(O)c(O)c3)cc2)NC(=O)C1Cc1ccccc1 (centres unmarked) [Compound 6a, DKP Phe(p-NH—CH2—CO—NH-dopamine)-N-MePhe]			
−7.6	2.28 10^−8 cm/s	0.86	CN1C(=O)C(Cc2ccc(NCC(=O)NCCc3ccc(O)c(O)c3)cc2)NC(=O)C1CC1CCCCC1 (centres unmarked) [Compound 6b, DKP Phe(p-NH—CH2—CO—NH-dopamine)-N-MeCha]			
−6.9	11.5 10^−8 cm/s	16.14	CN1C(=O)C(Cc2ccc(NCC(=O)NCCc3ccc(O)c(O)c3)cc2)NC(=O)C1Cc1ccc2ccccc2c1 (centres unmarked) [Compound 6c, DKP Phe(p-NH—CH2—CO—NH-dopamine)-N-Me2Nal]			
−7.7	1.90 10^−8 cm/s	>100	CN1C(=O)C(Cc2ccc(NCC(=O)NCCc3ccc(O)c(O)c3)cc2)NC(=O)C1Cc1ccc2ccc3cccc4ccc1c2c34 (centres unmarked) [Compound 6d, DKP Phe(p-NH—CH2—CO—NH-dopamine)-N-Me(1PyrenylAla)]			
−8.1	0.76 10^−8 cm/s	3.15	CN1C(=O)C(Cc2ccc(NCC(=O)NCCc3ccc(O)c(O)c3)cc2)NC(=O)C1CCc1ccccc1 (centres unmarked) [Compound 6e, DKP Phe(p-NH—CH2—CO—NH-dopamine)-N-MeHomoPhe]			
−6.5	32.1 10^−8 cm/s	15.47	CCCCCCC1C(=O)NC(Cc2ccc(NCC(=O)NCCc3ccc(O)c(O)c3)cc2)C(=O)N1C (centres unmarked) [Compound 6f, DKP Phe(p-NH—CH2—CO—NH-dopamine)-N-MeOct]			
